# Assay results from ChEMBL document CHEMBL3784987, “Synthesis and preliminary evaluation of 5,7-dimethyl-2-aryl-3H-pyrrolizin-3-ones as angiogenesis inhibitors” (Bioorg Med Chem Lett, 2016).
# The source made the active and inactive calls. No cut-off for these calls is given here.
# Legend:
# HUVEC [1] = assay: Antiangiogenic activity in human HUVEC cells assessed as angiogenesis rate at 10 uM after 5 hrs by endothelial tube formation assay relative to control; format: functional
# HUVEC [2] = assay: Antiangiogenic activity in human HUVEC cells assessed as angiogenesis rate at 1 uM after 5 hrs by endothelial tube formation assay relative to control; format: functional
# [3] = Cytotoxicity against mouse SVEC4-10 cells assessed as cell viability after 24 hrs by MTS assay; format: cell-based; conditions: SVEC4-10, 24 h
# Thoracic aorta [4] = assay: Antiangiogenic activity in Fischer 344 rat thoracic aorta assessed as field of view occupancy at 1 microg/ml after 5 days by light microscopic analysis (reference value: 86 %); format: functional
# Thoracic aorta [5] = assay: Antiangiogenic activity in Fischer 344 rat thoracic aorta assessed as field of view occupancy at 10 microg/ml after 5 days light microscopic analysis(reference value: 86 %); format: functional
Structure (SMILES),Activity (HUVEC [1]),further results
Cc1cc(C)n2c1C=C(c1cccc(Cl)c1)C2=O,inactive,
Cc1cc(C)n2c1C=C(c1cccc(F)c1)C2=O,inactive,
Cc1cc(C)n2c1C=C(c1cccc([N+](=O)[O-])c1)C2=O,inactive,
Cc1cc(C)n2c1C=C(c1cccc(Br)c1)C2=O,inactive,
Cc1cc(C)n2c1C=C(c1ccccc1Br)C2=O,Active,
Cc1cccc(C2=Cc3c(C)cc(C)n3C2=O)c1,inactive,
Cc1cc(C)n2c1C=C(c1ccccc1F)C2=O,Active,
Cc1cc(C)n2c1C=C(c1ccc(Cl)cc1)C2=O,inactive,
Cc1cc(C)n2c1C=C(c1ccccc1[N+](=O)[O-])C2=O,29.7%,Activity (HUVEC [2]): 74%; IC50 [3]: 32 µM; Activity (Thoracic aorta [4]): inactive; Activity (Thoracic aorta [5]): 4%
COc1ccccc1C1=Cc2c(C)cc(C)n2C1=O,Active,
Cc1cc(C)n2c1C=C(c1ccc(Br)cc1)C2=O,inactive,
CCN(CC)CCNC(=O)c1c(C)[nH]c(/C=C2\C(=O)Nc3ccc(F)cc32)c1C [SUNITINIB],Active,IC50 [3]: 8 µM
Cc1cc(C)n2c1C=C(c1ccccc1Cl)C2=O,inactive,
Cc1ccc(C2=Cc3c(C)cc(C)n3C2=O)cc1,inactive,
Cc1cc(C)n2c1C=C(c1ccc([N+](=O)[O-])cc1)C2=O,inactive,
COc1cccc(C2=Cc3c(C)cc(C)n3C2=O)c1,inactive,
Cc1ccccc1C1=Cc2c(C)cc(C)n2C1=O,Active,
Cc1cc(C)c(/C=C2\C(=O)Nc3ccccc32)[nH]1 [SEMAXANIB],,Activity (Thoracic aorta [4]): 61%; Activity (Thoracic aorta [5]): 10%
Cc1cc(C)n2c1C=C(c1ccccc1)C2=O,68.4%,Activity (Thoracic aorta [5]): Active
Cc1cc(C)n2c1C=C(c1ccc(F)cc1)C2=O,inactive,
